Common to all, as to assay type: cell-based
The target in one series is T1, TGR5 (Homo sapiens, UniProt Q8TDU6).
T1 construct: expressed in transfected cells; host or cells: HEK293
T1 sequence (Q8TDU6 1-330): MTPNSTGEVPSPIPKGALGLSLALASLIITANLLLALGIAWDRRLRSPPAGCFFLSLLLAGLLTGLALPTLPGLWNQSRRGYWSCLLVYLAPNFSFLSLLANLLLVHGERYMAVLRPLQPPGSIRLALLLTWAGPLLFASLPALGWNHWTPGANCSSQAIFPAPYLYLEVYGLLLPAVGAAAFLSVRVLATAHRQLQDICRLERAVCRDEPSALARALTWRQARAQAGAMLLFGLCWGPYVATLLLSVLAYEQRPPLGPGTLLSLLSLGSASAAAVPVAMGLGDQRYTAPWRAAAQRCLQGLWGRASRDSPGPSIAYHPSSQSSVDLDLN
Kind of series: TGR5 agonist test, HTRF cAMP detection in HEK293 cells transiently transfected with TGR5. Conditions: Table 2, TGR5 agonistic activity, HEK293 cells expressing TGR5, up to 100 μM, read-out: FXR (IC50/μM). The text has this:
HEK293 cells transiently transfected with TGR5 were stimulated with compounds, and then homogeneous time-resolved fluorescence (HTRF) was used to detect whether these compounds could agitate TGR5.
TGR5 is a bile acid membrane receptor and a member of the GPCR family. It regulates the metabolism of bile acids, lipids, and sugars. TGR5 is coupled to the Gs protein, and after activation, it further activates adenylate cyclase to produce a second messenger cAMP. HTRF is a method for detecting the content of cAMP and combines two techniques of fluorescence resonance energy transfer (FRET) and time-resolved fluorescence (TRF). […] FRET induces the acceptor to generate fluorescence, and Eu has a long fluorescence lifetime. TRF can distinguish the fluorescent signal by the acceptor from the fluorescent background. The fluorescent donor is bound to a cAMP-specific antibody, and cAMP is simultaneously labeled with a fluorescent acceptor. The donor and acceptor approach to each other through the antigen-antibody specific recognition reaction to generate FRET, and the cAMP produced by the cell competes with the labeled cAMP for antibody binding sites, resulting in the decrease of fluorescence intensity.
4.1. The test compound was prepared with 1× PBS into a solution having 2 times of the final concentration. The final concentration was 100 μM, 10 μM, 1 μM, 100 nM, 10 nM, 1 nM, 0.1 nM, DMSO (each well contains 1% DMSO).
4.2.2. The cell density was determined. At the same time, IBMX (final concentration of […]) was added into the serum-free culture medium, and the number of cells was 2000/5 μl/well.
4.2.3. 5 μl of the test compound and 5 μl of the cell suspension containing IBMX were added and mixed. A 384-well plate was sealed with a foil paper. The mixtures were protected from light and reacted at room temperature for […].
4.3.1 1 μl cAMP-d2 was diluted to 20 μl by using cAMP&cGMP conjugates & lysis buffer. 4.3.2 1 μl anti-cAMP-Cryptate was diluted to 20 μl by using cAMP&cGMP conjugates&lysis buffer.
4.3.3 After 30 minutes, 5 μl (1.3.1) and 5 μl (1.3.2) were added and a 384-well plate was sealed with a foil paper. The mixtures were protected from light and reacted at room temperature.
4.4. After 60 minutes, the values were detected by Envision 2101 microplate reader (PerkinElmer).
A general note: TR-FRET usually uses a lanthanide donor and a delayed reading to cut background.

Another series has as its target T2, FXR (Homo sapiens, UniProt Q96RI1).
T2 sequence (Q96RI1 262-486 limits assumed): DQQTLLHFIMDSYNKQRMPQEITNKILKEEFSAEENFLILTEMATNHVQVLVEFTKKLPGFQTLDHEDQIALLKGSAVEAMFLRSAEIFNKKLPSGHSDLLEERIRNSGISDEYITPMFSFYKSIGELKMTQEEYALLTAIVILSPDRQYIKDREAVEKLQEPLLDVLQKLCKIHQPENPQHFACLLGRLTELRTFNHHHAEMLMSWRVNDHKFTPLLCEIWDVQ
Kind of series: FXR antagonist test, luciferase reporter gene experiment against agonist GW4064. Particulars: antagonistic activity; HEK293 cells co-transfected with LBD(hFXR)-pbind and luciferase reporter; GW4064 300 nM. The text has this:
The antagonistic activity of the compound against FXR was detected by the reporter gene experiment. FXR is a nuclear receptor activated by bile acids and has regulatory effects on glucose metabolism and lipid metabolism in the body. After FXR is activated, it can initiate the expression of a series of genes and respond to external stimuli. The Luciferase reporter gene system is a reporting system for detecting firefly luciferase activity. Luciferase can catalyze the oxidation of Luciferin, a fluorescent substrate, and cause emition of biological fluorescence at the same time. The amount of luciferase expression can be determined by detecting the fluorescence intensity. In this experiment, the test compound may target FXR, and GW4064 is a known FXR agonist, which initiates the expression of a series of genes after binding to the FXR ligand-binding domain. Therefore, the reporter gene experiment was used. Two plasmids, LBD (hFXR)-pbind and PGL4.31-Luc were co-transfected into HEK293 cells to express the FXR ligand-binding domain in the cells. Two test compounds were separately added and a blank control group was set, and then an agonist was added. If the compound has affinity for FXR, it will compete with the agonist for binding to the FXR ligand-binding domain and affect the expression of luciferase in pGL4.31-Luc. The Envision2101 multi-well microplate reader was used to detect the chemiluminescence count value, and the effect of the test compound on FXR activity was judged based on the fluorescence intensity. 2 μg of the chimeric plasmid LBD(hFXR)-pbind and 2 μg of Luciferase reporter plasmid were co-transfected into 2×10^6 HEK293 cells and inoculated in white opaque 96-well plates. After 24 h, the culture medium was discarded, and the test compound (diluted with serum-free culture medium, containing 1% DMSO) was added and incubated for 1 h. Then FXR agonist GW4064 (300 nM) was added to stimulate for 6 h, and finally luciferase substrate was added and shaken to lyse. Luminescence was measured on the Envision 2104 microplate reader.
In general terms: In a reporter assay the amount or activity of a reporter protein is the signal.

The subject of a further series is HEK293 cells. Kind of series: CCK-8 cytotoxicity test. Conditions: for CCK-8 Assay (30 μM): cytotoxicity on HEK293 cells at 30 μM; for CCK-8 Assay (100 μM): cytotoxicity on HEK293 cells at 100 μM. The procedure:
The cytotoxicity of the compounds was evaluated by using CCK-8 experiment. CCK-8 is an indicator of redox reaction. In the presence of the electron carrier 1-Methoxy PMS, dehydrogenase in living cells is used to catalyze the tetrazolium salt WST-8 to form formazan dye. The production amount of formazan dye has a linear relationship with the number of living cells. The light absorption value measured at 450 nm using a microplate reader can indirectly reflect the number of living cells. Therefore, this method is used for the activity detection of some bioactive factors, large-scale anti-tumor drug screening, cell proliferation test, cytotoxicity test, and drug sensitivity test. This experiment is used to evaluate the cytotoxicity of the compounds. 2 μg of the chimeric plasmid LBD(hFXR)-pbind and 2 μg of Luciferase reporter plasmid were co-transfected into 2×10^6 HEK293 cells and inoculated in transparent 96-well plates. After 24 h, the culture medium was discarded and the test compound (diluted in serum-free culture medium, containing 1% DMSO) was added and incubated for 1 h, then FXR agonist GW4064 (300 nM) was added to agitate for 4 h. 10 μl detection reagent for CCK-8 was added to each well. After 2 hours, absorbance values at 450 nm and 650 nm (as reference wavelength) were detected with Flextation instrument.
On the technique in general: Tetrazolium dyes change colour on reduction, which living cells bring about.

In the case of `CC(C)[C@@H]1CC[C@]2(C(=O)NCC(=O)O)CC[C@]3(C)C(CCC4[C@@]5(C)CC[C@@H](O)C(C)(C)C5CC[C@]43C)C12` (stereo partly drawn) [Compound C1], on TGR5, the EC50 is more than 100 µM. This compound also gave an IC50 at FXR of 13.9 µM. In addition, in the series with HEK293 cells, the “CCK-8 Assay (30 μM)” value is given as “no” and the “CCK-8 Assay (100 μM)” value is reported as “no”.
As for `CC(=O)O[C@@H]1CC[C@@]2(C)C(CC[C@]3(C)C2CCC2C4[C@H](C(C)C)CC[C@]4(C(=O)NCC(=O)O)CC[C@]23C)C1(C)C` (stereo partly drawn) [Compound C2], the EC50 on TGR5 is more than 100 µM. Further, the IC50 on FXR turned out to be 6.31 µM. In addition, in the series with HEK293 cells, the “CCK-8 Assay (30 μM)” value is “no” and the “CCK-8 Assay (100 μM)” value is given as “no”.
In the case of `CCC(=O)O[C@@H]1CC[C@@]2(C)C(CC[C@]3(C)C2CCC2C4[C@H](C(C)C)CC[C@]4(C(=O)NCC(=O)O)CC[C@]23C)C1(C)C` (stereo partly drawn) [Compound C3], the EC50 on TGR5 was more than 100 µM. The compound further showed an IC50 at FXR of 3.89 µM. Besides, in the series with HEK293 cells, the “CCK-8 Assay (30 μM)” value is given as “no” and the “CCK-8 Assay (100 μM)” value is listed as “no”.
In the case of `CCCC(=O)O[C@@H]1CC[C@@]2(C)C(CC[C@]3(C)C2CCC2C4[C@H](C(C)C)CC[C@]4(C(=O)NCC(=O)O)CC[C@]23C)C1(C)C` (stereo partly drawn) [Compound C4], on TGR5, the EC50 is more than 100 µM. The same compound returned a concentration for half-maximal inhibition (IC50) on FXR of 2.05 µM. Moreover, in the series on HEK293 cells, the “CCK-8 Assay (30 μM)” value is recorded as “no” and the “CCK-8 Assay (100 μM)” value is recorded as “no”.
For the compound `CCCC(=O)O[C@H]1CC[C@@]2(C)C(CC[C@]3(C)C2CCC2C4[C@H](C(C)C)CC[C@]4(C(=O)NCC(=O)O)CC[C@]23C)C1(C)C` (stereo partly drawn) [Compound C12], the EC50 on TGR5 was more than 100 µM. This compound also gave an IC50 on FXR of 8.27 µM. Besides, in the series with HEK293 cells, the “CCK-8 Assay (30 μM)” value is listed as “no” and the “CCK-8 Assay (100 μM)” value is listed as “no”.
As to `CC(C)[C@@H]1CC[C@]2(C(=O)NCC(=O)O)CC[C@]3(C)C(CCC4[C@@]5(C)CC[C@@H](OC(=O)c6cccnc6)C(C)(C)C5CC[C@]43C)C12` (stereo partly drawn) [Compound C16], the EC50 on TGR5 is more than 100 µM. For the same compound, the 50% inhibitory concentration (IC50) on FXR was 5.67 µM. In the series on HEK293 cells, the “CCK-8 Assay (30 μM)” value is reported as “no” and the “CCK-8 Assay (100 μM)” value is recorded as “no”.

As usually defined, the IC50 is the concentration that inhibits the measured activity by half.
